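48-hour exposure; five concentrations; linearly interpolated endpoints. The concentration for 50% growth inhibition is given as GI50.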 Calls of active or inactive are those of the source. Cut-off read from the data, not from the text of the source: active = GI50 up to about 1.1 µM and inactive = higher.
Experiments:
Test in all cases: inhibition of tumour cell growth, NCI panel, 48 h
A498 = test system: A498
A549 = test system: A549
HCT-116 = test system: HCT-116
IGROV-1 = test system: IGROV-1
LOX IMVI = test system: LOX IMVI
LXFL 529 = test system: LXFL 529
NCI-H226 = test system: NCI-H226
NCI-H460 = test system: NCI-H460
OVCAR-4 = test system: OVCAR-4
SK-MEL-5 = test system: SK-MEL-5
SNB-75 = test system: SNB-75
SW-620 = test system: SW-620
TK-10 = test system: TK-10
CAKI-1 = test system: CAKI-1
KM12 = test system: KM12
NCI-H522 = test system: NCI-H522
SK-OV-3 = test system: SK-OV-3

Measured: GI50

COc1ccc(-c2cc(O)c3cc4c(cc3n2)OCO4)cc1
inactive: A498 > 100 µM | A549 > 100 µM | HCT-116 > 100 µM | IGROV-1 > 100 µM | LOX IMVI > 100 µM | LXFL 529 > 100 µM | NCI-H226 29 µM | NCI-H460 > 100 µM | OVCAR-4 > 100 µM | SK-MEL-5 > 100 µM | SNB-75 29.8 µM | SW-620 > 100 µM | TK-10 > 100 µM

COC(=O)C(Cc1nc2ccccc2nc1O)/C(=N\NC(C)(C)C)C(=O)Nc1c(C)cc(Br)cc1C (configuration not stated)
inactive: A498 12.7 µM | A549 50.9 µM | CAKI-1 24.5 µM | HCT-116 18.6 µM | IGROV-1 36.3 µM | KM12 41 µM | LOX IMVI 19.3 µM | LXFL 529 21.1 µM | NCI-H226 17.6 µM | NCI-H460 30.1 µM | NCI-H522 15.1 µM | OVCAR-4 34.8 µM | SK-MEL-5 18.3 µM | SK-OV-3 50.5 µM | SW-620 35.2 µM

CC1(C2CCC3(C)C(C2)C3Sc2ccccc2)OCCO1 (configuration not stated)
inactive: A498 18.8 µM | A549 24.2 µM | CAKI-1 20.3 µM | HCT-116 15.5 µM | IGROV-1 35.7 µM | KM12 25.6 µM | LOX IMVI 23.7 µM | LXFL 529 37.2 µM | NCI-H460 20.4 µM | NCI-H522 18.9 µM | OVCAR-4 31.3 µM | SK-MEL-5 17.3 µM | SK-OV-3 33 µM | SNB-75 54.6 µM | SW-620 21.5 µM | TK-10 56.6 µM

N#CC1(Cc2ccccc2)CCCCN1C(=O)c1ccccc1 (configuration not stated)
inactive: A498 > 100 µM | A549 > 100 µM | HCT-116 > 100 µM | IGROV-1 > 100 µM | KM12 > 100 µM | LOX IMVI 84.7 µM | LXFL 529 > 100 µM | NCI-H460 > 100 µM | OVCAR-4 > 100 µM | SK-MEL-5 > 100 µM | SK-OV-3 > 100 µM | SNB-75 > 100 µM | SW-620 > 100 µM | TK-10 > 100 µM

CCOC(=O)CP(=S)(S)c1ccccc1 (configuration not stated)
inactive: A498 > 100 µM | A549 > 100 µM | CAKI-1 > 100 µM | KM12 > 100 µM | LOX IMVI > 100 µM | LXFL 529 > 100 µM | NCI-H226 > 100 µM | NCI-H460 > 100 µM | NCI-H522 > 100 µM | OVCAR-4 > 100 µM | SK-MEL-5 > 100 µM | SK-OV-3 > 100 µM | SW-620 > 100 µM | TK-10 > 100 µM

— ChEMBL document CHEMBL1201862, “PubChem BioAssay data set” (2004)
